Laboratory results taken from ChEMBL document CHEMBL5032523, “Discovery of thiazolidin-4-one analogue as selective GSK-3β inhibitor through structure based virtual screening” (Bioorg Med Chem Lett, 2021).
The source made the active and inactive calls. The rule behind the calls is not given here.

What was measured:
[1] = target: T1, Serine/threonine-protein kinase haspin (Homo sapiens, UniProt Q8TF76); assay: Inhibition of HASPIN (unknown origin)
T1 sequence (Q8TF76 whole entry): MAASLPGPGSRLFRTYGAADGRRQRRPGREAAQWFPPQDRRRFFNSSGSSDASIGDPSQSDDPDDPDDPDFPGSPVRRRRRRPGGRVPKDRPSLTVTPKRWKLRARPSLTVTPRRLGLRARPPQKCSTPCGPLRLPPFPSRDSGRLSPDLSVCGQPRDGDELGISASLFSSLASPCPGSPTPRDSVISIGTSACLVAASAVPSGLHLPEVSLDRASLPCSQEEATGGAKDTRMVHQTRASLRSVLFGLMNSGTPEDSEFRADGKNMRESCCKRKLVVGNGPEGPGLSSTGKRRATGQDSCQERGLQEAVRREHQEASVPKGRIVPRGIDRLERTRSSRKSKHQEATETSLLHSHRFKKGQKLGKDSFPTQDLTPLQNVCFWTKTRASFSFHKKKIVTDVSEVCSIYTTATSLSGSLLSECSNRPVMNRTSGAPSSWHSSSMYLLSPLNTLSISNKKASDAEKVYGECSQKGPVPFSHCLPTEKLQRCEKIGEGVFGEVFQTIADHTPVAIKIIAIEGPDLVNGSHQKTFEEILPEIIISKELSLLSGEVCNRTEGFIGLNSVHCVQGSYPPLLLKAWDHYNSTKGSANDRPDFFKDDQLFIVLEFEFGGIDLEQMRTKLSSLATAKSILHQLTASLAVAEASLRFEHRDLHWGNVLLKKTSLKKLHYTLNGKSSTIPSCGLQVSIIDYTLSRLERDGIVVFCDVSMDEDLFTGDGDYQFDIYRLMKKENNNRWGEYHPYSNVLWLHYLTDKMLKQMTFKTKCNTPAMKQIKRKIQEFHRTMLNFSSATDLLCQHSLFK

[2] = target: T2, Cyclin-dependent kinase 5 (Homo sapiens, UniProt Q00535); assay: Inhibition of CDK5 (unknown origin)
Target sequence in this assay (Q00535 whole entry): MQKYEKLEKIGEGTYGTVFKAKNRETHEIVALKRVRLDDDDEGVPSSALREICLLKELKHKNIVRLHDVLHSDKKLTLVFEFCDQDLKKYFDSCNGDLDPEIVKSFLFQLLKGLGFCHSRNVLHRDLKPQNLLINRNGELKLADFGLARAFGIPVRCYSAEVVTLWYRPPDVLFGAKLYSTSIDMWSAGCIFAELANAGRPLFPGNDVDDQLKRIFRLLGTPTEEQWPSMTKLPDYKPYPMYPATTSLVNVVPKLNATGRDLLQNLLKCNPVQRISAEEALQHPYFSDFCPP

[3] = target: T3, Serine/threonine-protein kinase pim-1 (Homo sapiens, UniProt P11309); assay: Inhibition of PIM1 (unknown origin)
Target sequence in this assay (P11309 whole entry): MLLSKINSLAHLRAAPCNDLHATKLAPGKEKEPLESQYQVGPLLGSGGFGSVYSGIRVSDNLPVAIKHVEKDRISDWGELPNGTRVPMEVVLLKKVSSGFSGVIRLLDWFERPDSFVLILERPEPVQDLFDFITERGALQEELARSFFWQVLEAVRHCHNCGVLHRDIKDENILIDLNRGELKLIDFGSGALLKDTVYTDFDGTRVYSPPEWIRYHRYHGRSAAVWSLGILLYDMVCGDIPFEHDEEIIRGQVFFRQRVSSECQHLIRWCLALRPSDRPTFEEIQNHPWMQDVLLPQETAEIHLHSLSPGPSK

[4] = target: T4, Dual specificity tyrosine-phosphorylation-regulated kinase 1A (Homo sapiens, UniProt Q13627); assay: Inhibition of DYRK1A (unknown origin)
[5] = target: T5, Serine/threonine-protein kinase haspin (Homo sapiens) (UniProt Q8TF76); assay: Inhibition of HASPIN (unknown origin) at 10 uM relative to control
T5 sequence (whole entry): T1 sequence (Q8TF76 whole entry)

[6] = target: T6, Cyclin-dependent kinase 9 (Homo sapiens, UniProt P50750); assay: Inhibition of CDK9 (unknown origin) at 10 uM relative to control
T6 sequence (P50750 whole entry): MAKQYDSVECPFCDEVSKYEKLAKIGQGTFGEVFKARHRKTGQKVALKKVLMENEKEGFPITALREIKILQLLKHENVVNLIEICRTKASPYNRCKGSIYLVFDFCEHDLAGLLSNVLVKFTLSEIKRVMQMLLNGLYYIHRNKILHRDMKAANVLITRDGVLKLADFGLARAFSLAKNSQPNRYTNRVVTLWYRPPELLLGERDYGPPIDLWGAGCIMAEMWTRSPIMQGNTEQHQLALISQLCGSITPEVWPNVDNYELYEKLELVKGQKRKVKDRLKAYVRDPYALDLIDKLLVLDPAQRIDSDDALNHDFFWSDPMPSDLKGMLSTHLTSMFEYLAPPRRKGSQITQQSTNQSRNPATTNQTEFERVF

[7] = target: T4, Dual specificity tyrosine-phosphorylation-regulated kinase 1A; assay: Inhibition of DYRK1A (unknown origin) at 10 uM relative to control
[8] = target: T7, Glycogen synthase kinase-3 beta (Homo sapiens, UniProt P49841); assay: Non-competitive inhibition of GSK3beta (unknown origin) at 50 uM by ATP competitive assay
Target sequence in this assay (P49841 whole entry, looked up): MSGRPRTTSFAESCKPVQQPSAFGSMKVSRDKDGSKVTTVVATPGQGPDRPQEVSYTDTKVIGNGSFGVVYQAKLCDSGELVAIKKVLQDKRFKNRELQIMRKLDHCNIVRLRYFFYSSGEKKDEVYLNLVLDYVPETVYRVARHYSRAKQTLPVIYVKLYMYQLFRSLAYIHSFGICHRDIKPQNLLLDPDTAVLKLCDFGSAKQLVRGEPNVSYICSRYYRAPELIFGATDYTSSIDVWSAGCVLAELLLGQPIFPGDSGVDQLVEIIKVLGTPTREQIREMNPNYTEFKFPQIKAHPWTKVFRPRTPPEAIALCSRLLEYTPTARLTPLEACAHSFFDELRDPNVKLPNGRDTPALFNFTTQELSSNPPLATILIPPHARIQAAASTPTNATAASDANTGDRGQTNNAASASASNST

[9] = target: T2, Cyclin-dependent kinase 5; assay: Inhibition of CDK5 (unknown origin) at 10 uM relative to control
Target sequence in this assay (Q00535 whole entry, looked up): as the sequence (Q00535 whole entry) above

[10] = target: T3, Serine/threonine-protein kinase pim-1; assay: Inhibition of PIM1 (unknown origin) at 10 uM relative to control
Target sequence in this assay (P11309 whole entry, looked up): as the sequence (P11309 whole entry) above

[11] = target: T8, Dual specificity protein kinase CLK1 (Homo sapiens, UniProt P49759); assay: Inhibition of CLK1 (unknown origin)
Target sequence in this assay (P49759 whole entry): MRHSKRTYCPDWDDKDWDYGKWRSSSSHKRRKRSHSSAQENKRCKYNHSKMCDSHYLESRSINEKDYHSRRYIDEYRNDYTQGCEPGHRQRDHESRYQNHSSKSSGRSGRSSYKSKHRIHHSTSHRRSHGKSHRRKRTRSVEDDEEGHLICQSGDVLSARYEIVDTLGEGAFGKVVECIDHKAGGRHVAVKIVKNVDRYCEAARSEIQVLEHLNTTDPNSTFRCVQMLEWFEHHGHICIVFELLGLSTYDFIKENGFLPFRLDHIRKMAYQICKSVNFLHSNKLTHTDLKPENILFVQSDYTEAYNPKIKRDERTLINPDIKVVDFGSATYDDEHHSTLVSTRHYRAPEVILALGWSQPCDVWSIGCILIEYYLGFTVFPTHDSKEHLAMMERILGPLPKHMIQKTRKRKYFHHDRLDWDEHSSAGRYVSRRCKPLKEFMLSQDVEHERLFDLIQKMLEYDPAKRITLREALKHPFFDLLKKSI

[12] = target: T9, Casein kinase I delta/epsilon (Homo sapiens, UniProt P48730+P49674); assay: Inhibition of CK-1 delta/epsilon (unknown origin) at 10 uM relative to control; type: protein-complex assay
Target sequence in this assay (P48730 whole entry, looked up): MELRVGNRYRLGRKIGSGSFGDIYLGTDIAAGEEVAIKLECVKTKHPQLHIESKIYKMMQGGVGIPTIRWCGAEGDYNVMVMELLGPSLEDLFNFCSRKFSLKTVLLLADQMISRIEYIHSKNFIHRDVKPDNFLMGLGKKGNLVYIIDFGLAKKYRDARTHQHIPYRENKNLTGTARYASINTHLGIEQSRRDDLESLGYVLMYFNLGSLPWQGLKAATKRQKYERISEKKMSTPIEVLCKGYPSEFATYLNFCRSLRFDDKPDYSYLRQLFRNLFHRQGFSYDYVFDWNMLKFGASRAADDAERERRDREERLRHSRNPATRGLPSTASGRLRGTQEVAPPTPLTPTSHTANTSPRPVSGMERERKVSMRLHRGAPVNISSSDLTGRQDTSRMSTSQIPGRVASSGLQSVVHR
Target sequence in this assay (P49674 whole entry, looked up): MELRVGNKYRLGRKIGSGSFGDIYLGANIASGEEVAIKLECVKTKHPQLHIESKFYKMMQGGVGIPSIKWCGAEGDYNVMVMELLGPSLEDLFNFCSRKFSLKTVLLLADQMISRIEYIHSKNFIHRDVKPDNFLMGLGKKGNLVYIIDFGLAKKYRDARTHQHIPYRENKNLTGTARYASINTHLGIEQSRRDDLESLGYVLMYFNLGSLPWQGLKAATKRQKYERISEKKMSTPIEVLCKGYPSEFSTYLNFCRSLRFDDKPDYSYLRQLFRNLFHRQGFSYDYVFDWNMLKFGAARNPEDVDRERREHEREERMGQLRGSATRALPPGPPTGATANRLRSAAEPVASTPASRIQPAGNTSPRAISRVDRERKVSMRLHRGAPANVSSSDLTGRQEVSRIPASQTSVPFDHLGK

[13] = target: T9, Casein kinase I delta/epsilon; assay: Inhibition of CK-1 delta/epsilon (unknown origin); type: protein-complex assay
Target sequence in this assay (P48730 whole entry): as the sequence (P48730 whole entry, looked up) above
Target sequence in this assay (P49674 whole entry): as the sequence (P49674 whole entry, looked up) above

[14] = target: T7, Glycogen synthase kinase-3 beta; assay: Inhibition of GSK3beta (unknown origin)
Target sequence in this assay (P49841 whole entry): as the sequence (P49841 whole entry, looked up) above

[15] = target: T8, Dual specificity protein kinase CLK1; assay: Inhibition of CLK1 (unknown origin) at 10 uM relative to control
Target sequence in this assay (P49759 whole entry, looked up): as the sequence (P49759 whole entry) above

[16] = target: T7, Glycogen synthase kinase-3 beta; assay: Inhibition of GSK3beta (unknown origin) at 10 uM relative to control
Target sequence in this assay (P49841 whole entry, looked up): as the sequence (P49841 whole entry, looked up) above

[17] = target: T6, Cyclin-dependent kinase 9; assay: Inhibition of CDK9 (unknown origin)

Row | IC50 [1] | IC50 [2] | IC50 [3] | IC50 [4] | inhibition [5] | inhibition [6] | inhibition [7] | inhibition [8] | inhibition [9] | inhibition [10] | IC50 [11] | inhibition [12] | IC50 [13] | IC50 [14] | inhibition [15] | inhibition [16] | IC50 [17] | Compound
1 | > 10 µM | > 10 µM | > 10 µM | > 10 µM | 22% | 29% | 16% | Active | 11% | 29% | > 10 µM | 14% | > 10 µM | 1.08 µM | 22% | 80% | > 10 µM | COc1cc(/C=C2\S/C(=N/c3ccc(C)c(C)c3)NC2=O)ccc1OCc1ccc2ccccc2c1
2 | – | – | – | – | 29% | 23% | 6% | – | 7% | 16% | – | 12% | – | – | inactive | 25% | – | Cc1cc(C)c2cc(CN(CCc3ccccc3)Cc3nnnn3Cc3ccco3)c(=O)[nH]c2c1
3 | – | – | – | – | 33% | 29% | inactive | – | inactive | 22% | – | 37% | – | – | 9% | 10% | – | Clc1cccc(OCCc2cc([C@@H]3CCN(Cc4cccc5ncccc45)C3)n[nH]2)c1
4 | – | – | – | – | inactive | 18% | inactive | – | inactive | 19% | – | 28% | – | – | 11% | 5% | – | Clc1ccccc1OCCc1cc([C@@H]2CCN(Cc3cccc4ncccc34)C2)n[nH]1
